Results taken from paper PMC4882237 (Journal of medicinal chemistry, 2016).
“Also recorded” adds a separate entry of the source.

Columns and labels:
[1] = Metabolic stability in human liver microsomes; assay type: in vitro ADME
Caco-2 = Caco-2 permeability; assay type: in vitro ADME; details: result in words
cytochromes P450 (CYPs) = assay: Inhibition of human cytochromes P450, overall; details: result in words

With `CNCCCc1cncc(CCc2cc(C)cc(N)n2)c1` [Compound 14j, 4-Methyl-6-(2-(5-(3-(methylamino)propyl)pyridin-3-yl)ethyl)pyridin-2-amine] the “half-life in human liver microsomes” value ([1]; 1 μM concentration) was over 1 h, the “human microsome CYP metabolism” value ([1]; for at least 60 min, result in words) was “little or no” and the “metabolic stability in human liver microsomes” value ([1]; result in words) was “good”. For the same compound, the Caco-2 permeability (Caco-2) was “little to no; also recorded: little or no” and the “binding to / inhibition of cytochromes P450 (CYPs)” value (cytochromes P450 (CYPs)) was “minimal; also recorded: very poor”.
